Experimental data: patent publication US4450269A, “Mono-5-substituted-3-chloro-4H-1,2,6-thiadiazin-4-one antifungal agents” (FMC Corporation, priority 1980, dated 1984)
Where a name gives a salt, the structure may show the parent alone.

Assays:
[1] = test system: Alternaria solani; test: Mycelial growth test; assay type: cell-based; conditions: AS; for inhibition at 5 ppm / inhibition at 10 ppm / inhibition at 20 ppm / inhibition at 40 ppm: Alternaria solani, 72 h, read-out: Percent Fungus Growth Inhibition; for Percent Fungus Growth Inhibition: 72 hours
[2] = test system: Erysiphe polygoni; test: whole plant or invertebrate; conditions: foliar, 24 h, read-out: Percent Disease Control, curative, bean powdery mildew

Cc1cc(Oc2nsnc(Cl)c2=O)cc(C)c1Br [Compound 60, 3-[(4-bromo-3,5-dimethyl)-phenoxy]-5-chloro-4H--1,2,6-thiadiazin-4-one]
inhibition at 5 ppm ([1]; 5 ppm): 33% | inhibition at 10 ppm ([1]; 10 ppm): 43% | inhibition at 20 ppm ([1]; 20 ppm): 52% | inhibition at 40 ppm ([1]; 40 ppm): 52%

3-chloro-5-(bromophenoxy)-4H-1,2,6-thiadiazin-4-one [Compound 33]
Percent Fungus Growth Inhibition ([1]; 5 ppm): 100% | Percent Fungus Growth Inhibition ([1]; 10 ppm): 100% | Percent Fungus Growth Inhibition ([1]; 20 ppm): 100% | Percent Fungus Growth Inhibition ([1]; 40 ppm): 100%

O=C(Nc1ccccc1)Oc1ccc(Oc2nsnc(Cl)c2=O)cc1 [Compound 37, 3-chloro-5-[4-(phenylaminocarbonyloxy)phenoxy]-4H-1,2,6,-thiadiazin-4-one]
inhibition at 5 ppm ([1]; 5 ppm): 46% | inhibition at 10 ppm ([1]; 10 ppm): 50% | inhibition at 20 ppm ([1]; 20 ppm): 50% | inhibition at 40 ppm ([1]; 40 ppm): 54% | pest or weed control at 150 ppm [2]: 0%

O=C(O)c1ccc(Oc2nsnc(Cl)c2=O)cc1 [Compound 50, 3-(4-carboxyphenoxy)-5-chloro-4H--1,2,6-thiadiazin-4-one]
inhibition at 5 ppm ([1]; 5 ppm): 33% | inhibition at 10 ppm ([1]; 10 ppm): 21% | inhibition at 20 ppm ([1]; 20 ppm): 54% | inhibition at 40 ppm ([1]; 40 ppm): 63% | pest or weed control at 150 ppm [2]: 0%

O=c1c(Cl)nsnc1Oc1ccc(F)cc1 [Compound 11, 3-chloro-5-(4-fluorophenoxy)-4H--1,2,6-thiadiazin-4-one]
inhibition at 5 ppm ([1]; 5 ppm): 63% | inhibition at 10 ppm ([1]; 10 ppm): 83% | inhibition at 20 ppm ([1]; 20 ppm): 100% | inhibition at 40 ppm ([1]; 40 ppm): 100% | pest or weed control at 150 ppm [2]: 100%

CC(=O)c1ccc(Oc2nsnc(Cl)c2=O)cc1 [Compound 47, 3-(4-acetylphenoxy)-5-chloro-4H--1,2,6-thiadiazin-4-one]
inhibition at 5 ppm ([1]; 5 ppm): 92% | inhibition at 10 ppm ([1]; 10 ppm): 92% | inhibition at 20 ppm ([1]; 20 ppm): 92% | inhibition at 40 ppm ([1]; 40 ppm): 88% | pest or weed control at 150 ppm [2]: 0%

CC(=O)c1cccc(Oc2nsnc(Cl)c2=O)c1 [Compound 48, 3-(3-acetylphenoxy)-5-chloro-4H--1,2,6-thiadiazin-4-one]
inhibition at 5 ppm ([1]; 5 ppm): 88% | inhibition at 10 ppm ([1]; 10 ppm): 92% | inhibition at 20 ppm ([1]; 20 ppm): 100% | inhibition at 40 ppm ([1]; 40 ppm): 100% | pest or weed control at 150 ppm [2]: 0%

O=c1c(Cl)nsnc1Oc1ccc([N+](=O)[O-])cc1 [Compound 9, 3-chloro-5-(4-nitrophenoxy)-4H--1,2,6-thiadiazin-4-one]
inhibition at 5 ppm ([1]; 5 ppm): 31% | inhibition at 10 ppm ([1]; 10 ppm): 63% | inhibition at 20 ppm ([1]; 20 ppm): 100% | inhibition at 40 ppm ([1]; 40 ppm): 100% | pest or weed control at 150 ppm [2]: 0%

3-chloro-5-[methylaminocarbonyloxy)phenoxyl]-4H-1,2,6-thiadiazin-4-one [Compound 36]
Percent Fungus Growth Inhibition ([1]; 5 ppm): 71% | Percent Fungus Growth Inhibition ([1]; 10 ppm): 90% | Percent Fungus Growth Inhibition ([1]; 20 ppm): 100% | Percent Fungus Growth Inhibition ([1]; 40 ppm): 100%

O=c1c(Cl)nsnc1Oc1cccc(Cl)c1 [Compound 13, 3-chloro-5-(3-chlorophenoxy)-4H--1,2,6-thiadiazin-4-one]
inhibition at 5 ppm ([1]; 5 ppm): 45% | inhibition at 10 ppm ([1]; 10 ppm): 59% | inhibition at 20 ppm ([1]; 20 ppm): 86% | inhibition at 40 ppm ([1]; 40 ppm): 100% | pest or weed control at 150 ppm [2]: 100%

Cc1cc(Oc2nsnc(Cl)c2=O)cc(C)c1Cl [Compound 59, 3-chloro-5-[(4-chloro-3,5-dimethyl)phenoxy]-4H--1,2,6-thiadiazin-4-one]
inhibition at 5 ppm ([1]; 5 ppm): 48% | inhibition at 10 ppm ([1]; 10 ppm): 52% | inhibition at 20 ppm ([1]; 20 ppm): 57% | inhibition at 40 ppm ([1]; 40 ppm): 57%

Cc1cc(Oc2nsnc(Cl)c2=O)ccc1Cl [Compound 54, 3-chloro-5-(4-chloro-3-methylphenoxy)-4H--1,2,6-thiadiazin-4-one]
inhibition at 5 ppm ([1]; 5 ppm): 70% | inhibition at 10 ppm ([1]; 10 ppm): 100% | inhibition at 20 ppm ([1]; 20 ppm): 100% | inhibition at 40 ppm ([1]; 40 ppm): 100% | pest or weed control at 150 ppm [2]: 0%

Cc1cc(Cl)ccc1Oc1nsnc(Cl)c1=O [Compound 55, 3-chloro-5-(4-chloro-2-methylphenoxy)-4H--1,2,6-thiadiazin-4-one]
inhibition at 5 ppm ([1]; 5 ppm): 100% | inhibition at 10 ppm ([1]; 10 ppm): 100% | inhibition at 20 ppm ([1]; 20 ppm): 100% | inhibition at 40 ppm ([1]; 40 ppm): 100% | pest or weed control at 150 ppm [2]: 50%

N#Cc1ccc(Oc2nsnc(Cl)c2=O)cc1 [Compound 10, 3-chloro-5-(4-cyanophenoxy)-4H--1,2,6-thiadiazin-4-one]
inhibition at 5 ppm ([1]; 5 ppm): 54% | inhibition at 10 ppm ([1]; 10 ppm): 79% | inhibition at 20 ppm ([1]; 20 ppm): 92% | inhibition at 40 ppm ([1]; 40 ppm): 92% | pest or weed control at 150 ppm [2]: 0%

O=c1c(Cl)nsnc1Oc1ccc(Cl)cc1Cl [Compound 17, 3-chloro-5-(2,4-dichlorophenoxy)-4H--1,2,6-thiadiazin-4-one]
inhibition at 5 ppm ([1]; 5 ppm): 79% | inhibition at 10 ppm ([1]; 10 ppm): 72% | inhibition at 20 ppm ([1]; 20 ppm): 93% | inhibition at 40 ppm ([1]; 40 ppm): 100% | pest or weed control at 150 ppm [2]: 100%

Cc1cc(Cl)c(Oc2nsnc(Cl)c2=O)cc1C [Compound 58, 3-chloro-5-[(2-chloro-4,5-dimethyl)phenoxy]-4H--1,2,6-thiadiazin-4-one]
inhibition at 5 ppm ([1]; 5 ppm): 48% | inhibition at 10 ppm ([1]; 10 ppm): 48% | inhibition at 20 ppm ([1]; 20 ppm): 43% | inhibition at 40 ppm ([1]; 40 ppm): 43% | pest or weed control at 150 ppm [2]: 50%

O=c1c(Cl)nsnc1Oc1cccc2ccccc12 [Compound 32, 3-chloro-5(1-naphthoxy)-4H-1,2,6-thiadiazin-4-one]
inhibition at 5 ppm ([1]; 5 ppm): 58% | inhibition at 10 ppm ([1]; 10 ppm): 58% | inhibition at 20 ppm ([1]; 20 ppm): 88% | inhibition at 40 ppm ([1]; 40 ppm): 92% | pest or weed control at 150 ppm [2]: 90%

CC(C)(C)c1ccc(Oc2nsnc(Cl)c2=O)cc1 [Compound 4, 3-chloro-5-(4-tert-butylphnoxy)-4H--1,2,6-thiadiazin-4-one]
inhibition at 5 ppm ([1]; 5 ppm): 13% | inhibition at 10 ppm ([1]; 10 ppm): 13% | inhibition at 20 ppm ([1]; 20 ppm): 0% | inhibition at 40 ppm ([1]; 40 ppm): 17% | pest or weed control at 150 ppm [2]: 100%

Cc1ccc(Cl)c(Oc2nsnc(Cl)c2=O)c1 [Compound 56, 3-chloro-5-[(2-chloro-5-methyl)phenoxy]-4H--1,2,6-thiadiazin-4-one]
inhibition at 5 ppm ([1]; 5 ppm): 52% | inhibition at 10 ppm ([1]; 10 ppm): 71% | inhibition at 20 ppm ([1]; 20 ppm): 81% | inhibition at 40 ppm ([1]; 40 ppm): 100% | pest or weed control at 150 ppm [2]: 0%

O=c1c(Cl)nsnc1Oc1ccc(Cl)c(Cl)c1 [Compound 16, 3-chloro-5-(3,4-dichlorophenoxy)-4H--1,2,6-thiadiazin-4-one]
inhibition at 5 ppm ([1]; 5 ppm): 38% | inhibition at 10 ppm ([1]; 10 ppm): 50% | inhibition at 20 ppm ([1]; 20 ppm): 56% | inhibition at 40 ppm ([1]; 40 ppm): 50% | pest or weed control at 150 ppm [2]: 0%

Nc1ccc(Oc2nsnc(Cl)c2=O)cc1 [Compound 26, 5-(4-aminophenoxy)-3-chloro-4H--1,2,6-thiadiazin-4-one]
inhibition at 5 ppm ([1]; 5 ppm): 60% | inhibition at 10 ppm ([1]; 10 ppm): 80% | inhibition at 20 ppm ([1]; 20 ppm): 100% | inhibition at 40 ppm ([1]; 40 ppm): 100% | pest or weed control at 150 ppm [2]: 0%

Cc1ccc(Oc2nsnc(Cl)c2=O)cc1 [Compound 3, 3-chloro-5-(4-methylphenoxy)-4H--1,2,6-thiadiazin-4-one]
inhibition at 5 ppm ([1]; 5 ppm): 19% | inhibition at 10 ppm ([1]; 10 ppm): 63% | inhibition at 20 ppm ([1]; 20 ppm): 100% | inhibition at 40 ppm ([1]; 40 ppm): 100% | pest or weed control at 150 ppm [2]: 0%

CC(=O)Nc1ccc(Oc2nsnc(Cl)c2=O)cc1 [Compound 8, 5-(4-acetylaminophenoxy)-3-chloro-4H--1,2,6-thiadiazin-4-one]
inhibition at 5 ppm ([1]; 5 ppm): 38% | inhibition at 10 ppm ([1]; 10 ppm): 41% | inhibition at 20 ppm ([1]; 20 ppm): 69% | inhibition at 40 ppm ([1]; 40 ppm): 86% | pest or weed control at 150 ppm [2]: 0%

Cc1ccc(Oc2nsnc(Cl)c2=O)c(Br)c1 [Compound 57, 3-[(2-bromo-4-methyl)-phenoxy]-5-chloro-4H--1,2,6-thiadiazin-4-one]
inhibition at 5 ppm ([1]; 5 ppm): 71% | inhibition at 10 ppm ([1]; 10 ppm): 90% | inhibition at 20 ppm ([1]; 20 ppm): 90% | inhibition at 40 ppm ([1]; 40 ppm): 90% | pest or weed control at 150 ppm [2]: 100%

O=c1c(Cl)nsnc1Oc1c(Cl)cccc1Cl [Compound 18, 3-chloro-5-(2,6-dichlorophenoxy)-4H--1,2,6-thiadiazin-4-one]
inhibition at 5 ppm ([1]; 5 ppm): 69% | inhibition at 10 ppm ([1]; 10 ppm): 90% | inhibition at 20 ppm ([1]; 20 ppm): 90% | inhibition at 40 ppm ([1]; 40 ppm): 84% | pest or weed control at 150 ppm [2]: 100%

O=c1c(Cl)nsnc1Oc1cccc(Cl)c1Cl [Compound 19, 3-chloro-5-(2,3-dichlorophenoxy)-4H--1,2,6-thiadiazin-4-one]
inhibition at 5 ppm ([1]; 5 ppm): 62% | inhibition at 10 ppm ([1]; 10 ppm): 62% | inhibition at 20 ppm ([1]; 20 ppm): 90% | inhibition at 40 ppm ([1]; 40 ppm): 100%

Nc1ccc(Oc2nsnc(Cl)c2=O)cc1 [Compound 27, 5-(4-aminophenoxy)-3-chloro-4H--1,2,6-thiadiazine-4-one hydrochloride]
Percent Fungus Growth Inhibition ([1]; 5 ppm, hydrochloride): 47% | Percent Fungus Growth Inhibition ([1]; 10 ppm, hydrochloride): 73% | Percent Fungus Growth Inhibition ([1]; 20 ppm, hydrochloride): 80% | Percent Fungus Growth Inhibition ([1]; 40 ppm, hydrochloride): 87%
